In US6756380B1, “5-phenyl-pyrimidine derivatives” (Hoffmann-La Roche Inc., priority 1999, dated 2004):
Counter-ions that a name gives are not always drawn.

Tested on: not given
Experiment: not given
Details: not given

melting point [°C]	Structure (SMILES)
147 to 149	Cc1ccccc1-c1cnc(OCCN(C)C)nc1C(=O)N(C)Cc1cc(C(F)(F)F)cc(C(F)(F)F)c1 (as salt: hydrochloride) [Example 21, 2-(2-Dimethylamino-ethoxy)-5-o-tolyl-pyrimidine-4-carboxylic acid (3,5-bis-trifluoromethyl-benzyl)-methyl-amide]

Target: T1, human NK1 receptor (Homo sapiens, UniProt P25103)
T1 construct: expressed in transfected cells; host or cells: CHO cells infected with Semliki virus expression system; membrane suspension
T1 sequence (P25103 whole entry): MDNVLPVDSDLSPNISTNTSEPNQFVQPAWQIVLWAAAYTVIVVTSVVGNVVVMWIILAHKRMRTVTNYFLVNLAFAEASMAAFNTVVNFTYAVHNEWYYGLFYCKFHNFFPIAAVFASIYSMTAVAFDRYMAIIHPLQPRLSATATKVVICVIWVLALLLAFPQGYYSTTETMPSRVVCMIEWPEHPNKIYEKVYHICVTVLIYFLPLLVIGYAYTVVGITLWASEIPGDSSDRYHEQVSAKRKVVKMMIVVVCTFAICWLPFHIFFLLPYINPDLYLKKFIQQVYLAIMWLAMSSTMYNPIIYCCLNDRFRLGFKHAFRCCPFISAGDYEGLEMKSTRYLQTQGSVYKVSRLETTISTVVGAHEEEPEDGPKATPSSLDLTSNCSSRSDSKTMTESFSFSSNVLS
Experiment: NK1 receptor binding assay, displacement of [3H]substance P
Details: [3H]substance P (0.6 nM) displacement; CHO cells infected with the human NK1 receptor (Semliki virus expression system); 60 min at room temperature; read-out: affinity to the NK-1 receptor, given as pKi (converted)
Protocol: The affinity of test compounds for the NK, receptor was evaluated at human NK, receptors in CHO cells infected with the human NK1 receptor (using the Semliki virus expression system) and radiolabelled with [^3H]substance P (final concentration 0.6 nM). Binding assays were performed in HEPES buffer (50 mM, pH 7.4) containing BSA (0.04 %) leupeptin (8 μg/ml), MnCl2 (3mM) and phosphoramidon (2 μM). Binding assays consisted of 250 μl of membrane suspension (1.25×10^5 cells/assay tube), […] of buffer of displacing agent and 125 μl of [^3H]substance P. Displacement curves were determined with at least seven concentrations of the compound. The assay tubes were incubated for 60 min at room temperature after which time the tube contents were rapidly filtered under vacuum through GF/C filters presoaked for 60 min with PEI (0.3%) with 2×2 ml washed of HEPES buffer (50 mM, pH 7.4). The radioactivity retained on the filters was measured by scintillation counting. All assays were performed in triplicate in at least 2 separate experiments.

Structure (SMILES)	Ki [nM]
CN1CCN(c2ncc(-c3ccccc3Cl)c(C(=O)N(C)Cc3cc(C(F)(F)F)cc(C(F)(F)F)c3)n2)CC1 [Example 13, 5-(2-Chloro-phenyl)-2-(4-methyl-piperazin-1-yl)-pyrimidine-4-carboxylic acid (3,5-bis-trifluoromethyl-benzyl)-methyl-amide]	6.17
Cc1ccccc1-c1cnc(OCCN(C)C)nc1C(=O)N(C)Cc1cc(C(F)(F)F)cc(C(F)(F)F)c1 [Example 21, 2-(2-Dimethylamino-ethoxy)-5-o-tolyl-pyrimidine-4-carboxylic acid (3,5-bis-trifluoromethyl-benzyl)-methyl-amide]	2.19

Results, then the compound that gave them:

Ki [nM]	Structure (SMILES)
3.72	CN1CCN(c2ncc(-c3cccc4ccccc34)c(C(=O)N(C)Cc3cc(C(F)(F)F)cc(C(F)(F)F)c3)n2)CC1 [Example 25, 2-(4-Methyl-piperazin-1-yl)-5-naphthalen-1-yl-pyrimidine-4-carboxylic acid (3,5-bis-trifluoromethyl-benzyl)-methyl-amide]
1.45	Cc1cc(F)ccc1-c1cnc(NCCN(C)C)nc1C(=O)N(C)Cc1cc(C(F)(F)F)cc(C(F)(F)F)c1 [Example 54, 2-(2-Dimethylamino-ethylamino)-5-(4-fluoro-2-methyl-phenyl)-pyrimidine-4-carboxylic acid (3,5-bis-trifluoromethyl-benzyl)-methyl-amide]
0.661	Cc1ccccc1-c1cnc(OCCN(C)C)nc1N(C)C(=O)C(C)(C)c1cc(C(F)(F)F)cc(C(F)(F)F)c1 [Example 79, 2-(3,5-Bis-trifluoromethyl-phenyl)-N-[2-(2-dimethylamino-ethoxy)-5-o-tolyl-pyrimidin-4-yl]-N-methyl-isobutyramide]
